According to patent publication US20250154138A1, “Small Molecule IL-17A Modulators” (BeiGene, Ltd., priority 2022, published 2025):

Experiments:
[1] = biological target: human IL-17A / human IL-17RA (Homo sapiens (Human), UniProt Q16552); experiment: Human IL-17A biochemical assay (HTRF, blocking of IL-17A binding to IL-17RA); conditions: 0.4 nM IL-17A, 0.3 nM IL-17RA, max compound concentration 10 uM
Procedure, shortened: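 Recombinant human IL-17A (0.4 nM) was pre-incubated with compound (top 10 uM, 2.7-fold, 10 points) for 3 h at room temperature in 20 mM HEPES pH 7.5, 50 mM NaCl, 0.1% BSA, 0.2 mM DTT, 0.005% Tween 20. IL-17RA (0.3 nM) was then added for 1 h, followed by anti-6His Tb and anti-human IgG-XL665 detection for 1 h; IC50 from four-parameter fit.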

[2] = test system: IL-17-induced GROα secretion from HT-29 cells; experiment: GROα release assay in human colorectal adenocarcinoma epithelial cell (HT-29, ELISA); format: cell-based; conditions: Homo sapiens, HT-29, 48 h, 10 ng/mL IL-17A, highest concentration 10 μM, read-out: Cellular assay HT29 cell/CXCL1 IC50
Procedure, shortened: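 HT-29 cells were exposed 48 h at 37°C to IL-17A (final 10 ng/mL) preincubated 15 min with compound (4-fold dilutions, top 10 μM). Secreted GROα was quantified by ELISA against a standard curve, and IC50 obtained by four-parameter fitting.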

Sequence of human IL-17A / human IL-17RA (Q16552 24-155): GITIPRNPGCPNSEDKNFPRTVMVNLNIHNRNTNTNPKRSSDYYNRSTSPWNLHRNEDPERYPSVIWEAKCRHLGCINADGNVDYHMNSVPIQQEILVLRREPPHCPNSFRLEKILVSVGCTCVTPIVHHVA

SMILES | IC50 [1] [nM] | IC50 [2] [nM]
CNC(=O)C1(N2C[C@@H](C(C)C)NC2=O)CCc2cc3[nH]c([C@@H](NC(=O)c4ccnn4C)C4CCCCC4)nc3cc2C1 (stereo partly drawn) [Example 123, 2-((S)-cyclohexyl(1-methyl-1H-pyrazole-5-carboxamido)methyl)-6-((R)-4-isopropyl-2-oxoimidazolidin-1-yl)-N-methyl-5,6,7,8-tetrahydro-1H-naphtho[2,3-d]imidazole-6-carboxamide] | 441 | 61.6
Cc1nonc1C(=O)N[C@H](C(=O)Nc1ccc2c(c1)CC(C(=O)NC1CCC(F)(F)C1)(N1CC3(CC3)CNC1=O)C2)C1CCC(F)(F)CC1 (stereo partly drawn) [Example 190, N-((1S)-1-(4,4-difluorocyclohexyl)-2-((2-((3,3-difluorocyclopentyl)carbamoyl)-2-(6-oxo-5,7-diazaspiro[2.5]octan-5-yl)-2,3-dihydro-1H-inden-5-yl)amino)-2-oxoethyl)-4-methyl-1,2,5-oxadiazole-3-carboxamide] | 87.1 | 139
CNC(=O)C1(N2CC3(CC3)CNC2=O)CCc2cc(NC(=O)[C@@H](NC(=O)c3ccnn3C)C3CCCCC3)sc2C1 (stereo partly drawn) [Example 145, N-((1S)-1-cyclohexyl-2-((6-(methylcarbamoyl)-6-(6-oxo-5,7-diazaspiro[2.5]octan-5-yl)-4,5,6,7-tetrahydrobenzo[b]thiophen-2-yl)amino)-2-oxoethyl)-1-methyl-1H-pyrazole-5-carboxamide] | 139 | 454
CNC(=O)C1(N2CC(Cc3ccc(C(F)(F)F)cc3)NC2=O)Cc2ccc(NC(=O)[C@@H](NC(=O)c3ccnn3C)C3CCCCC3)cc2C1 (stereo partly drawn) [Example 80, N-((1S)-1-cyclohexyl-2-((2-(methylcarbamoyl)-2-(2-oxo-4-(4-(trifluoromethyl)benzyl)imidazolidin-1-yl)-2,3-dihydro-1H-inden-5-yl)amino)-2-oxoethyl)-1-methyl-1H-pyrazole-5-carboxamide] | 157 | 971
CNC(=O)C1(N2CC(C)(C(F)(F)F)CNC2=O)Cc2ccc(NC(=O)[C@@H](NC(=O)c3ccnn3C)C3CCCCC3)cc2C1 (stereo partly drawn) [Example 179, N-((1S)-1-cyclohexyl-2-((2-(5-methyl-2-oxo-5-(trifluoromethyl)tetrahydropyrimidin-1(2H)-yl)-2-(methylcarbamoyl)-2,3-dihydro-1H-inden-5-yl)amino)-2-oxoethyl)-1-methyl-1H-pyrazole-5-carboxamide] | 10.9 | 51.6
C#CCC1CN(C2(C(=O)NC)Cc3ccc(NC(=O)[C@@H](NC(=O)c4ccnn4C)C4CCCCC4)cc3C2)C(=O)N1 (stereo partly drawn) [Example 63, N-((1S)-1-cyclohexyl-2-((2-(methylcarbamoyl)-2-(2-oxo-4-(prop-2-yn-1-yl)imidazolidin-1-yl)-2,3-dihydro-1H-inden-5-yl)amino)-2-oxoethyl)-1-methyl-1H-pyrazole-5-carboxamide] | 85 | 326
Cn1nccc1C(=O)N[C@H](C(=O)Nc1ccc2c(c1)CC(C(=O)Nc1cccc(F)c1)(N1CC3(CC3)CNC1=O)C2)C1CCCCC1 (stereo partly drawn) [Example 200, N-((1S)-1-cyclohexyl-2-((2-((3-fluorophenyl)carbamoyl)-2-(6-oxo-5,7-diazaspiro[2.5]octan-5-yl)-2,3-dihydro-1H-inden-5-yl)amino)-2-oxoethyl)-1-methyl-1H-pyrazole-5-carboxamide] | 31.2 | 107
CCc1ccccc1NC(=O)C1(N2C[C@@H](C(C)C)NC2=O)Cc2ccc(NC(=O)[C@@H](NC(=O)c3nonc3C)C(C3CC3)C3CC3)cc2C1 (stereo partly drawn) [Example 289, N-((2S)-1,1-dicyclopropyl-3-((2-((2-ethylphenyl)carbamoyl)-2-((R)-4-isopropyl-2-oxoimidazolidin-1-yl)-2,3-dihydro-1H-inden-5-yl)amino)-3-oxopropan-2-yl)-4-methyl-1,2,5-oxadiazole-3-carboxamide] | 24.5 | 81.4
CNC(=O)C1(N2CC3(CC3)CNC2=O)Cc2ccc(NC(=O)[C@@H](NC(=O)c3ccnn3C3CC3)C3CCCCC3)cc2C1 (stereo partly drawn) [Example 141, N-((1S)-1-cyclohexyl-2-((2-(methylcarbamoyl)-2-(6-oxo-5,7-diazaspiro[2.5]octan-5-yl)-2,3-dihydro-1H-inden-5-yl)amino)-2-oxoethyl)-1-cyclopropyl-1H-pyrazole-5-carboxamide] | 16 | 41.1
Cc1ccccc1NC(=O)C1(N2CC3(CC3)CNC2=O)Cc2ccc(NC(=O)[C@@H](NC(=O)c3nonc3C)C3CCC(F)(F)CC3)cc2C1 (stereo partly drawn) [Example 214, N-((1S)-1-(4,4-difluorocyclohexyl)-2-oxo-2-((2-(6-oxo-5,7-diazaspiro[2.5]octan-5-yl)-2-(o-tolylcarbamoyl)-2,3-dihydro-1H-inden-5-yl)amino)ethyl)-4-methyl-1,2,5-oxadiazole-3-carboxamide] | 37.3 | 102
Cn1nccc1C(=O)N[C@H](C(=O)Nc1ccc2c(c1)CC(N1C[C@@H](C(F)(F)F)NC1=O)C2)C1CCCCC1 (stereo partly drawn) [Example 146, N-((1S)-1-cyclohexyl-2-oxo-2-((2-((S)-2-oxo-4-(trifluoromethyl)imidazolidin-1-yl)-2,3-dihydro-1H-inden-5-yl)amino)ethyl)-1-methyl-1H-pyrazole-5-carboxamide] | 204 | 768
Cc1nonc1C(=O)N[C@H](C(=O)Nc1ccc2c(c1)CC(N1C[C@@H](C(F)(F)F)NC1=O)C2)C1CCC(F)(F)CC1 (stereo partly drawn) [Example 178, N-((1S)-1-(4,4-difluorocyclohexyl)-2-oxo-2-((2-((S)-2-oxo-4-(trifluoromethyl)imidazolidin-1-yl)-2,3-dihydro-1H-inden-5-yl)amino)ethyl)-4-methyl-1,2,5-oxadiazole-3-carboxamide] | 3650 | 2210
CC(C)n1nccc1C(=O)N[C@H](C(=O)Nc1ccc2c(c1)CC(N1C[C@@H](C(F)(F)F)NC1=O)C2)C(C1CC1)C1CC1 (stereo partly drawn) [Example 177, N-((2S)-1,1-dicyclopropyl-3-oxo-3-((2-((S)-2-oxo-4-(trifluoromethyl)imidazolidin-1-yl)-2,3-dihydro-1H-inden-5-yl)amino)propan-2-yl)-1-isopropyl-1H-pyrazole-5-carboxamide] | 53.3 | 59.4
Cc1ccccc1NC(=O)C1(N2C[C@@H](C(C)C)NC2=O)Cc2ccc(NC(=O)[C@@H](NC(=O)c3nonc3C)C3CCC(F)(F)CC3)cc2C1 (stereo partly drawn) [Example 253, N-((1S)-1-(4,4-difluorocyclohexyl)-2-((2-((R)-4-isopropyl-2-oxoimidazolidin-1-yl)-2-(o-tolylcarbamoyl)-2,3-dihydro-1H-inden-5-yl)amino)-2-oxoethyl)-4-methyl-1,2,5-oxadiazole-3-carboxamide] | 355 | 331
CNC(=O)C1(N2CC(C(C)C)NC2=O)Cc2cc3nc([C@@H](NC(=O)c4nonc4C)C4CCCCC4)[nH]c3cc2C1 (stereo partly drawn) [Example 29, N-((1S)-cyclohexyl(6-(4-isopropyl-2-oxoimidazolidin-1-yl)-6-(methylcarbamoyl)-1,5,6,7-tetrahydroindeno[5,6-d]imidazol-2-yl)methyl)-4-methyl-1,2,5-oxadiazole-3-carboxamide] | 160 | 146
Cc1nonc1C(=O)N[C@H](C(=O)Nc1ccc2c(c1)CC(C(=O)NC1(c3cc(F)ccc3F)CC1)(N1CC3(CC3)CNC1=O)C2)C1CCC(F)(F)CC1 (stereo partly drawn) [Example 233, N-((1S)-1-(4,4-difluorocyclohexyl)-2-((2-((1-(2,5-difluorophenyl)cyclopropyl)carbamoyl)-2-(6-oxo-5,7-diazaspiro[2.5]octan-5-yl)-2,3-dihydro-1H-inden-5-yl)amino)-2-oxoethyl)-4-methyl-1,2,5-oxadiazole-3-carboxamide] | 77.8 | 90.1
CNC(=O)C1(N2CC(C(C)c3ccccc3)NC2=O)Cc2ccc(NC(=O)[C@@H](NC(=O)c3ccnn3C)C3CCCCC3)cc2C1 (stereo partly drawn) [Example 48, N-((1S)-1-cyclohexyl-2-((2-(methylcarbamoyl)-2-(2-oxo-4-(1-phenylethyl)imidazolidin-1-yl)-2,3-dihydro-1H-inden-5-yl)amino)-2-oxoethyl)-1-methyl-1H-pyrazole-5-carboxamide] | 161 | 1270
Cc1nonc1C(=O)N[C@H](C(=O)Nc1ccc2c(c1)CC(N1C[C@@H](C(F)(F)F)NC1=O)C2)C(C1CC1)C1CC1 (stereo partly drawn) [Example 183, N-((2S)-1,1-dicyclopropyl-3-oxo-3-((2-((S)-2-oxo-4-(trifluoromethyl)imidazolidin-1-yl)-2,3-dihydro-1H-inden-5-yl)amino)propan-2-yl)-4-methyl-1,2,5-oxadiazole-3-carboxamide] | 768 | 370
CNC(=O)C1(N2CC3(CC3)CNC2=O)Cc2ccc(NC(=O)[C@@H](NC(=O)c3nonc3C)C3CCC(F)(F)CC3)cc2C1 (stereo partly drawn) [Example 138, N-((1S)-1-(4,4-difluorocyclohexyl)-2-((2-(methylcarbamoyl)-2-(6-oxo-5,7-diazaspiro[2.5]octan-5-yl)-2,3-dihydro-1H-inden-5-yl)amino)-2-oxoethyl)-4-methyl-1,2,5-oxadiazole-3-carboxamide] | 53.1 | 101
CNC(=O)C1(N2CC3(CCC3)CNC2=O)Cc2ccc(NC(=O)[C@@H](NC(=O)c3ccnn3C)C3CCCCC3)cc2C1 (stereo partly drawn) [Example 108, N-((1S)-1-cyclohexyl-2-((2-(methylcarbamoyl)-2-(7-oxo-6,8-diazaspiro[3.5]nonan-6-yl)-2,3-dihydro-1H-inden-5-yl)amino)-2-oxoethyl)-1-methyl-1H-pyrazole-5-carboxamide] | 5.8 | 42.3
